Measurements from ChEMBL document CHEMBL5614403, “Efficient synthesis of novel 1,10 phenanthroline-substituted imidazolium salts: Exploring their anticancer applications” (Eur J Med Chem, 2024).

Key:
MDA-MB-231 [1] = assay: Cytotoxicity against human MDA-MB-231 cells assessed as cell viability incubated for 72 hrs by MTT assay; type: functional, cell-based; details: MDA-MB-231, 72 h
MCF-10A = assay: Cytotoxicity against human MCF-10A cells assessed as cell viability incubated for 72 hrs by MTT assay; type: functional, cell-based
MCF7 [2] = assay: Cytotoxicity against human MCF7 cells assessed as cell viability incubated for 72 hrs by MTT assay; type: functional, cell-based; details: MCF7, 72 h
HepG2 = assay: Antitumor activity against human HepG2 cells incubated for 72 hrs by MTT assay; type: functional, cell-based; details: HepG2, 72 h
MCF7 [3] = assay: Cytotoxicity against human MCF7 cells assessed as cell viability at 100 uM incubated for 72 hrs by MTT assay relative to control; type: functional; details: read-out: Activity
MDA-MB-231 [4] = assay: Cytotoxicity against human MDA-MB-231 cells assessed as cell viability at 100 uM incubated for 72 hrs by MTT assay relative to control; type: functional; details: read-out: Activity
[5] = Stability of compound in 100 % DMSO-d6 by 1H NMR spectroscopic analysis; type: physicochemical; details: 168 h, TDE = time-dependent effect, time < 7 day
[6] = Upregulation of Bax mRNA expression level in human MCF7 cells assessed as fold change by qRT-PCR analysis; type: functional
[7] = Selectivity index, ratio of IC50 for human MCF-10A cells to ratio of IC50 for human MCF-7 cells; type: toxicity; details: MCF-10A cells versus MCF-7 cells, read-out: Selectivity Index
[8] = Selectivity index, ratio of IC50 for human MCF-10A cells to ratio of IC50 for human MDA-MB-231 cells; type: toxicity; details: MCF-10A cells versus MDA-MB-231 cells, read-out: Selectivity Index
MCF7 [9] = assay: Downregulation of Bcl-2 protein level in human MCF7 cells by Western blot analysis; type: functional, cell-based; details: time 24-72 hrs, TDE = time-dependent effect
[10] = Upregulation of Bax mRNA expression level in human MDA-MB-231 cells assessed as fold change by qRT-PCR analysis; type: functional
MDA-MB-231 [11] = assay: Downregulation of Bcl-2 protein level in human MDA-MB-231 cells measured after 24 to 72 hrs by Western blot analysis; type: functional, cell-based; details: time 24-72 hrs
[12] = Downregulation of Bcl-2 mRNA expression level in human MDA-MB-231 cells assessed as fold change by qRT-PCR analysis; type: functional
[13] = Downregulation of Bcl-2 mRNA expression level in human MCF7 cells assessed as fold change by qRT-PCR analysis; type: functional
MDA-MB-231 [14] = assay: Induction of apoptosis in human MDA-MB-231 cells incubated for 72 hrs by Annexin V-FITC and PI staining based flow cytometry analysis; type: functional
[15] = Stability of compound in D2O/DMSO-d6 (20:80) measured after 2 days by 1H NMR spectroscopic analysis; type: physicochemical; details: 48 h; time 2 day
MCF7 [16] = assay: Downregulation of Bcl-2 protein level in human MCF7 cells measured after 24 to 72 hrs by Western blot analysis; type: functional, cell-based; details: time 24-72 hrs
MDA-MB-231 [17] = assay: Upregulation of Bax protein level in human MDA-MB-231 cells measured after 24 to 72 hrs by Western blot analysis; type: functional, cell-based; details: time 24-72 hrs
[18] = Stability of compound in D2O/DMSO-d6 (20:80) measured upto 1 day by 1H NMR spectroscopic analysis; type: physicochemical; details: 24 h
MCF7 [19] = assay: Induction of apoptosis in human MCF7 cells incubated for 72 hrs by Annexin V-FITC and PI staining based flow cytometry analysis; type: functional
DNA = assay: Binding affinity to DNA (unknown origin) assessed as intrinsic binding constant at 0 to 15 uM by ultraviolet-visible spectroscopic analysis; type: nucleic-acid assay; details: dose 0-15 µM
MDA-MB-231 [20] = assay: Upregulation of Bax protein level in human MDA-MB-231 cells by Western blot analysis; type: functional, cell-based; details: time 24-72 hrs, TDE = time-dependent effect
MCF7 [21] = assay: Upregulation of Bax protein level in human MCF7 cells by Western blot analysis; type: functional, cell-based; details: time 24-72 hrs, TDE = time-dependent effect
MDA-MB-231 [22] = assay: Downregulation of Bcl-2 protein level in human MDA-MB-231 cells by Western blot analysis; type: functional, cell-based; details: time 24-72 hrs, TDE = time-dependent effect
MCF7 [23] = assay: Upregulation of Bax protein level in human MCF7 cells measured after 24 to 72 hrs by Western blot analysis; type: functional, cell-based; details: time 24-72 hrs

SMILES	IC50 (MDA-MB-231 [1]) [µM]	IC50 (MCF-10A) [µM]	IC50 (MCF7 [2]) [µM]	viability at 100 µM (MCF7 [3]) [%]	viability at 100 µM (MDA-MB-231 [4]) [%]	further results
c1ccc(C[n+]2ccn(-c3cc4cccnc4c4ncccc34)c2)cc1	29.4	46.7	52			
Cc1c(C)c(C)c(C[n+]2ccn(-c3cc4cccnc4c4ncccc34)c2)c(C)c1C	37.2	32.4	49.8			
c1ccc(-c2nc3c4cccnc4c4ncccc4c3[nH]2)cc1						IC50 (HepG2): 680 nM
COc1cccc2c1C(=O)c1c(O)c3c(c(O)c1C2=O)C[C@@](O)(C(=O)CO)C[C@@H]3O[C@H]1C[C@H](N)[C@H](O)[C@H](C)O1 [DOXORUBICIN]	4.8					
Cc1cc(C)c(C[n+]2ccn(-c3cc4cccnc4c4ncccc34)c2)c(C)c1	32.7	35.9	64.2			
CCCC[n+]1ccn(-c2cc3cccnc3c3ncccc23)c1	52.6	48.4	43.4	4.8	25.2	
c1cnc2c(c1)cc(-n1ccnc1)c1cccnc12	60.7	237	128	61.3	39.7	
CCCCCCCC[n+]1ccn(-c2cc3cccnc3c3ncccc23)c1	17.8	35.1	49.7	21.1	10.1	
CCCCCCCCCCCC[n+]1ccn(-c2cc3cccnc3c3ncccc23)c1.[Br-]	12.8	64.2	15.4			Stability [5]: Tde; fold change (FC) [6]: 3.4; selectivity ratio [7]: 4.1; selectivity ratio [8]: 5; Activity (MCF7 [9]): Tde; fold change (FC) [10]: 3.6; Activity (MDA-MB-231 [11]): Dose-Dependent Effect; fold change (FC) [12]: 4.2; fold change (FC) [13]: 3.9; Activity (MDA-MB-231 [14]): 95%; Stability [15]: Unstable; Activity (MCF7 [16]): Dose-Dependent Effect; Activity (MDA-MB-231 [17]): Dose-Dependent Effect; Stability [18]: Stable; Activity (MCF7 [19]): 89%; Kb (DNA): 12600 M⁻¹; Activity (MDA-MB-231 [20]): Tde; Activity (MCF7 [21]): Tde; Activity (MDA-MB-231 [22]): Tde; Activity (MCF7 [23]): Dose-Dependent Effect
